This is an account of results in patent US8993626B2, “Methods of treatment using sterculic acid” (The United States of America, as represented by the …, priority 2010, dated 2015).

Data set [1] relates to bFGF-induced angiogenesis. The data set can be described thus: Chick chorioallantonic membrane (CAM) assay. In kind it is in vivo. The note with it: for decrease in blood vessels induced by bFGF: bFGF 5 ng/ml, 72 h. As for the experimental part: Results shown are reported as the reduction in angiogenic stimulation (vessels counted) compared to untreated controls. A, bFGF (5 ng/ml); B, bFGF (5 ng/ml)+5 μl DMSO; C, bFGF (5 ng/ml)+5 μl DMSO containing 1 μg/ml sterculic acid; D, bFGF (5 ng/ml)+5 μl DMSO containing 10 μg/ml sterculic acid.
Fertilized chick embryos, 9-day old, were maintained in a 48 place table top egg incubator at 37° C. in a specific humidity of 60%. After swabbing the egg shell with 70% alcohol, a small window was cut through the egg shell close to the inner shell surface where the prominent blood vessels are located using a hobby grinding wheel (Dremel Emerson Electric Co., Racine, Wis.). A filter disc saturated with bFGF (5 ng/ml) was placed on the CAM. Sterculic acid dissolved in dimethyl sulfoxide (DMSO) at various concentrations was added to the disc daily over 3-day period of incubation. The controls received the same amount of DMSO. After 72 h the disc and surrounding CAM were excised, inverted and examined under a high power dissecting microscope. The result was reported as reduction in angiogenic stimulation (vessels counted) compared to untreated controls.

Data set [2] has as its system ARPE-19 cells. The data set can be described thus: qRT-PCR of cytokines in TNF-α treated cells. In kind it is cell-based. As for the experimental part: FIGS. 17A-17D depict the mRNA expressions of (A) IL-1β, (B) IL-8, (C) IκBα, and (D) GRP78 in response to 2 ng/ml TNF-α, 1 μM sterculic acid, 1 μM stearic acid, or the combinations of TNF-α with either sterculic acid or stearic acid. n=3. Error bars indicate the standard deviations.
Tumor necrosis factor-alpha (TNF-α, Roche Diagnostics, Indianapolis, Ind.) was diluted in PBS to make 10 μg/ml stock solution and stored at −20° C. In order to test the anti-inflammation effect of fatty acids against TNF-α, ARPE-19 cells were treated with 2 ng/ml of TNF-α for 24 hr in serum-free medium with or without 1 μM fatty acids. The mRNA expressions of cytokines were then examined using qRT-PCR. Each treatment was performed three times with quadruplicate measurements in each experiment, in 24-well plates.
The RNA was extracted using RNeasy Mini Kit (Qiagen, Valencia, Calif.). The reverse transcription was performed with reagents and kits from Invitrogen. Quantification of mRNA expression was performed using the Taqman gene expression assays and the following primers (VEGFa, Hs00173626_m1; IL-1β, Hs01555413_m1; IL-6, Hs00174131_m1; IL-8, Hs00174103_m1; IκBα, Hs00153283_m1; GRP78, Hs99999174_m1; CHOP, Hs01090850_m1; NOX2, Hs00166163_m1; NOX4, Hs01558199_m1; SCD, Hs00748952 s1; TNF-α, Hs00174128_m1; TGF-β1, Hs00998133_m1; GAPD, 4352934e). GAPD expression was used as an endogenous standard. All qRT-PCR experiments were measured in triplicates in an ABI 7500 Real-Time PCR Instrument (Applied Biosystems, Foster City, Calif.). The results of each treatment were normalized and presented in percentage relative to the vehicle-only control.
(In qPCR the cycle at which signal appears reflects the starting amount.)

Data set [3] concerns D407 cells. The data set is described as follows: 7-ketocholesterol-mediated cytotoxicity, 24-well CCK-8 viability. As to conditions: 11 μM 7KCh, 24 hr, CCK-8.

As to `CCCCCCCCC1=C(CCCCCCCC(=O)O)C1` [sterculic acid, 8-(2-octacyclopropen-1-yl)octanoic acid], the “decrease in blood vessels induced by bFGF” value in data set [1] (1 μg/ml sterculic acid in DMSO daily) is “Significant decrease”; in data set [1] (10 μg/ml sterculic acid in DMSO daily), “more than 3 fold”. For the same compound, the “value observed in the CAM assay” value in data set [1] (compared with the HUVEC IC50) was found to be 10 µM. The “induction of GRP78 mRNA expression” value in data set [2] (2 ng/ml TNF-α alone or with 1 μM fatty acid, 24 hr, FIG. 17D) was “small measurable effect”. In data set [2] (1 μM fatty acid + 2 ng/ml TNF-α, 24 hr), the “antagonist effect to the cytokine inductions by TNF-α” value was “did not show any antagonist effect”. Also, in data set [2] (5 μM, data not shown), the “antagonist effect to TNF-α at 5 μM” value is on record as “failed to antagonize”. Also, the “co-treatment concentration that completely offsets the 7KCh cytotoxic effect (viability at level of control)” value in data set [3] turned out to be 5 µM.
